Measured values: ChEMBL document CHEMBL5727383, “[1,2,3]triazolo[4,5-D]pyrimidine derivatives” (2019)

Target: Cannabinoid receptor 2 (Homo sapiens, UniProt P34972)
Assay: Radioligand Binding Assay: The affinity of the compounds of the invention for cannabinoid receptors was determined using recommended amounts of membrane preparations (PerkinElmer) of human embryonic kidney (HEK) cells expressing the human CNR1 or CNR2 receptors in conjunction with 1.5 or 2.6 nM [3H]-CP-55,940 (Perkin Elmer) as radioligand, respectively. Binding was performed in binding buffer (50 mM Tris, 5 mM MgCl2, 2.5 mM EDTA, and 0.5% (wt/vol) fatty acid free BSA, pH 7.4 for CB1 receptor and 50 mM Tris, 5 mM MgCl2, 2.5 mM EGTA, and 0.1% (wt/vol) fatty acid free BSA, pH 7.4 for CB2 receptor) in a total volume of 0.2 mL for 1 h at 30° C. shaking. The reaction was terminated by rapid filtration through microfiltration plates coated with 0.5% polyethylenimine (UniFilter GF/B filter plate; Packard). Bound radioactivity was analyzed for Ki using nonlinear regression analysis (Activity Base, ID Business Solution, Limited), with the Kd values for [3H]CP55,940 determined from saturation experiments.

Sequence of Cannabinoid receptor 2 (P34972 whole entry): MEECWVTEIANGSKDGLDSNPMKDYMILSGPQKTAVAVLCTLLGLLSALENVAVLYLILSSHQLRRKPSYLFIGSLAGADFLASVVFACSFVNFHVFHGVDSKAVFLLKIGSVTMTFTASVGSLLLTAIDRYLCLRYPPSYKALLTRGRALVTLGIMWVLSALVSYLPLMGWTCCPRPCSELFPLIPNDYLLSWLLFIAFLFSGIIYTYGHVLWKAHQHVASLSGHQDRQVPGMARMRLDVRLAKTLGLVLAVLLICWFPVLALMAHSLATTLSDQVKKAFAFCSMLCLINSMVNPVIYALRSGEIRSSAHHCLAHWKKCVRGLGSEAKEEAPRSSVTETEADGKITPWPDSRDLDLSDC

CC(C)(C)c1nc(N2CCC(F)(F)C2)c2nn(Cc3ccc(C4(C(F)(F)F)N=N4)cc3Cl)nc2n1
Ki: 2340 nM
